This passage reports IC50 results from PubChem BioAssay AID602168 (The Scripps Research Institute Molecular Screening Center, 2012).

This assay has as its target Nuclear receptor coactivator 1 (Homo sapiens) (UniProt Q15788). As to the kind of experiment: SRC1 coactivator transcriptional activity inhibitors, dose response, counter-screen for SRC3 inhibitor project, cell-based, luminescence (AID 602168). The following applies: Cell-based SRC1 luciferase reporter.

Activity calls are given as the source filed them. How the calls were made is not given here.

Nuclear receptor coactivator 1 (Homo sapiens), sequence (Q15788 whole entry, looked up): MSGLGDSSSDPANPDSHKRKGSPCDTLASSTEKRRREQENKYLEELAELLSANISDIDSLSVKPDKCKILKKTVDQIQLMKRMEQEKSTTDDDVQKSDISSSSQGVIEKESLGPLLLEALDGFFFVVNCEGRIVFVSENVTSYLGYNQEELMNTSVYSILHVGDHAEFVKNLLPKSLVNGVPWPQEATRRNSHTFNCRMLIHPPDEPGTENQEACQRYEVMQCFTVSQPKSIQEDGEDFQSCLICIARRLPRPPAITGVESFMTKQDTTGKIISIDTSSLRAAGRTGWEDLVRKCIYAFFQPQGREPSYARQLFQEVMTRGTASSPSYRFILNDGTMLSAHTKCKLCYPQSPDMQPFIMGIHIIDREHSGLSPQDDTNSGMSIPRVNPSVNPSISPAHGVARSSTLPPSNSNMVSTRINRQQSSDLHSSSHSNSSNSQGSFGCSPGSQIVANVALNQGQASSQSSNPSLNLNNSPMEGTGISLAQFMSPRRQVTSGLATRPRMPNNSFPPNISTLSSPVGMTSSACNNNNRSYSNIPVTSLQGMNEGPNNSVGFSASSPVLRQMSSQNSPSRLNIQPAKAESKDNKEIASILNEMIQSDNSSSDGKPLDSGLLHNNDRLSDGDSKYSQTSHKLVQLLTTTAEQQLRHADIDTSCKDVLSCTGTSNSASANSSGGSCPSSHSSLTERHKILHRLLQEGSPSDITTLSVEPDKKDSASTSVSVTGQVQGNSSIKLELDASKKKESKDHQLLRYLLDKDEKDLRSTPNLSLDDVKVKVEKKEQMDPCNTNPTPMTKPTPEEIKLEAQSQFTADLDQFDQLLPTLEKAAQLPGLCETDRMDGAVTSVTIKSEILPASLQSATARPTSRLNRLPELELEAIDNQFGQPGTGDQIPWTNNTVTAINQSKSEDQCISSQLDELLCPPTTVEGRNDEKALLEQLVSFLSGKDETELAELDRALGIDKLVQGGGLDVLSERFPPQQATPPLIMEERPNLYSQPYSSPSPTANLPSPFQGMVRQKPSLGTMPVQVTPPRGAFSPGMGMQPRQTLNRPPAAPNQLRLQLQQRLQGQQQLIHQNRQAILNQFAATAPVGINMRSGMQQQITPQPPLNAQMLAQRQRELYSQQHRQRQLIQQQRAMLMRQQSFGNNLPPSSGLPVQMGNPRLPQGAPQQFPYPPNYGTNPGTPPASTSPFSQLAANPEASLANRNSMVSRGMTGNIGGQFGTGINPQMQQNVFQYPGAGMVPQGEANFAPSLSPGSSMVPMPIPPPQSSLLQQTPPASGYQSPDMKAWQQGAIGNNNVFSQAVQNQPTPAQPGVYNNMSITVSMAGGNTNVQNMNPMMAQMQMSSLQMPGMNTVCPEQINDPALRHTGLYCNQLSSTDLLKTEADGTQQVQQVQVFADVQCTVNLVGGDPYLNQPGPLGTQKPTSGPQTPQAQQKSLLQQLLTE

A word on the IC50: it is the point on the concentration scale where inhibition reaches its midpoint. Take `COc1cccc(/C=N/Nc2cc(-n3nc(C)cc3-c3ccccc3)ncn2)c1O`: the IC50 result was “inactive”.
As for `Nc1nc2c(nnn2C2CC(O)C(CO)O2)c(=O)[nH]1` (configuration not stated), the figure is > 35.9 µM (inactive); as for `Nc1ccc(Oc2ccccc2-c2ccccc2)cc1`, “inactive”; as for `CN(C)/C=C/C(=O)c1ccc2noc(-c3ccccc3)c2c1`, “inactive”.
As for `O=C(Nc1nc2ccccc2s1)C1c2ccccc2Oc2ccccc21`, the entry is “inactive”.
For `COc1cc(NS(C)(=O)=O)ccc1Nc1c2ccccc2nc2ccccc12`, the IC50 is > 35.9 µM (inactive).
As for `Cc1cccc2sc(NNC(=O)c3ccc(S(=O)(=O)N4CC(C)CC(C)C4)cc3)nc12` (configuration not stated), the figure is 4.52 µM.
As for `COc1cc2oc(=O)cc(-c3ccc(-c4ccc(CO)cc4)cc3)c2c(OC)c1OC`, the figure is 8.05 µM; as for `Cc1cc(/C=C2\Cc3ccccc3C2=O)c(C)n1-c1ccccc1`, “inactive”.
Take `CC(C)(C)c1cc(C(=O)N/N=C/c2ccc(O)cc2)n(-c2ccccc2)n1`: the IC50 is > 35.9 µM (inactive).
As for `CN1C(=O)C2(C(C#N)=C(N)N(c3cc(Cl)cc(Cl)c3)C3=C2C(=O)CCC3)c2ccccc21` (configuration not stated), the figure is > 35.9 µM (inactive); as for `C=CCn1c(C)cc(C(=O)COc2ccc(C)nc2[N+](=O)[O-])c1C`, > 35.9 µM (inactive).
Take `Cc1ccc(-n2c(Cl)c(Cl)nc(Cl)c2=O)cc1`: the IC50 result is “inactive”.
The value for `CN(Cc1cnc2nc(N)nc(N)c2n1)c1ccc(C(=O)NC(CCC(=O)O)C(=O)O)cc1` (configuration not stated) was > 35.9 µM (inactive); that for `Nc1nccc(-c2ccc(-n3cnc4ccccc43)cc2)n1` was 2.23 µM; that for `Cc1nc2c(-c3ccc(Cl)cc3)cnn2c(N)c1-c1ccc(F)cc1` was > 35.9 µM (inactive).
On to `CCOc1ccccc1-n1c(SCC(=O)Nc2ccccc2C(=O)O)nc2ccccc2c1=O`, for which the IC50 was > 35.9 µM (inactive).
With `COc1cc2c(c(OC)c1OC)-c1ccc(SC)c(=O)cc1C(NC=O)CC2` (configuration not stated), the IC50 is > 35.9 µM (inactive).
Turning to `COc1cccc(-c2nnc3sc(C4CCCCC4)nn23)c1`, the IC50 is 3.46 µM.
As for `COc1cc2[nH]c3c(Cl)ncnc3c2cc1OC`, the figure is > 35.9 µM (inactive); as for `Nc1ccc(-c2cc3ccccc3oc2=O)cc1`, > 35.9 µM (inactive).
The value for `CCCC(=O)NC(c1ccc(Cl)cc1)c1ccc2cccnc2c1O` (configuration not stated) was 8.71 µM; that for `Cc1ccc2occ(/C=N/NC(=O)[C@@H](N)Cc3ccccc3)c(=O)c2c1` was “inactive”; that for `COc1cc(/C=C(/C(=O)c2cccs2)c2nc3ccccc3[nH]2)cc(OC)c1O` was > 35.9 µM (inactive).
As to `CC(=O)c1cccc(NC(=O)Nc2ccc3c(c2)N(C)C(=O)CS3)c1`, the IC50 entry is “inactive”.
As for `Cc1ccc(C(=O)Nc2cnc3ccccc3c2)cc1`, the entry is “inactive”; as for `C(=N\Nc1ccc2ccccc2n1)/c1ccc2c(c1)OCCO2`, “inactive”; as for `CC(=O)c1ccc(Nc2c3c(nc4ccccc24)CCCC3)cc1`, > 35.9 µM (inactive).
For `COc1ccc(C(C(=O)NC2CCCCC2)N(C(=O)CCl)c2ccc(Cl)cc2)cc1` (configuration not stated), the IC50 result was “inactive”.
The value for `Fc1ccc(CSc2nnc(-c3ccncc3)o2)cc1` was 3.43 µM.
Consider `Cc1ccc(OCC(=O)c2cc(C)n(-c3ccccc3)c2C)c([N+](=O)[O-])n1`, for which the IC50 result is “inactive”.
The value for `COc1cccc(F)c1C(C[N+](=O)[O-])c1c(N)n(C)c(=O)n(C)c1=O` (configuration not stated) was “inactive”; that for `C=CS(=O)(=O)N(Cc1ccc(Cl)c(Cl)c1)C[C@@H](O)CO` was > 35.8 µM (inactive); that for `CCOc1ccc(Nc2cc(C)nc(-n3nc(C)cc3C)n2)cc1` was > 35.9 µM (inactive).
As for `NC(=S)N/N=C1\CCSc2ccc(Cl)cc21`, the figure is > 35.8 µM (inactive); as for `O=C(Nc1cccc(C(F)(F)F)c1)Nc1nnc([C@@H]2C[C@H](O)[C@@H](CO)O2)s1`, 5.71 µM.
In the case of `O=C(Nc1ccccc1Oc1ccccc1)c1cc([N+](=O)[O-])ccc1Cl`, the IC50 entry is “inactive”.
As for `CC[C@@]1(O)C(=O)OCc2c1cc1n(c2=O)Cc2cc3c(NC(=O)CN)cccc3nc2-1`, the figure is 3.78 µM; as for `O=C(CC(Nc1ccc(Cl)cc1Cl)C(=O)O)c1ccccc1` (configuration not stated), > 35.9 µM (inactive); as for `CCCCN1C=CC(=C2C(=O)c3ccccc3C2=O)C=C1`, > 35.9 µM (inactive).
In the case of `CCn1ccnc1CN(C)Cc1cn[nH]c1-c1ccc(OC)c(F)c1`, the half-maximal inhibitory concentration (IC50) was 9.9 µM.
In the case of `COC(=O)c1cc(S(=O)(=O)NCCc2ccc(Cl)cc2)c[nH]1`, the IC50 entry was “inactive”.
The value for `Cc1cccc(C)c1NS(=O)(=O)c1ccc(-c2cnc(C3CC3)o2)cc1` was “inactive”.
Consider `c1ccc(-c2noc(-c3ccc4ccccc4c3)n2)nc1`, for which the IC50 result is “inactive”.
On to `C=CCOc1ccc(/C=C2\SC(=S)N(CCC(=O)O)C2=O)cc1`, for which the concentration for half-maximal inhibition (IC50) was 6.96 µM.
Consider `Cc1ccc(N=c2c([N+](=O)[O-])nn(-c3ccc4c(c3)OCCO4)n2O)cc1F`, for which the IC50 is > 35.9 µM (inactive).
The value for `O=C(NCCCn1ccnc1)c1ccc(N2CCCCCC2)c([N+](=O)[O-])c1` was “inactive”; that for `O=c1[nH]c(O)c(N=Nc2ccc3c(c2)OCCO3)c(=O)[nH]1` was > 35.9 µM (inactive); that for `Cc1ccc2nc(-c3ccncc3)c(NC3CCCC3)n2c1` was “inactive”.
Regarding `CN(C)c1ccc(CNC(=O)CCNS(=O)(=O)c2cc(Br)cnc2N)cc1`, the IC50 entry is “inactive”.
The value for `CC(=O)N1CCN(c2ncnc3ccccc23)CC1` was “inactive”.
Regarding `Clc1ccc(-c2csc3ncnc(NCCN4CCOCC4)c23)cc1`, the IC50 entry was “inactive”.
As for `O=C(CCl)Nc1cccc(-c2cnc3ccccc3n2)c1`, the entry is “inactive”.
For the molecule `CN(C)S(=O)(=O)c1ccc(N2CCN(S(=O)(=O)c3ccc(F)cc3)CC2)c(Cl)c1`, the IC50 entry was “inactive”.
With `Cc1nc(N2CCC(C(N)=O)CC2)c2c(-c3cccs3)csc2n1`, the half-maximal inhibitory concentration (IC50) was 8.33 µM.
In the case of `CC(=O)Nc1ccc(SCC(=O)c2cc(C)n(-c3ccccc3F)c2C)cc1`, the IC50 is > 12 µM (inactive).
The value for `O=C(COC(=O)c1ccc[nH]c1=O)Nc1ccc(N2CCCCC2)cc1` was > 35.9 µM (inactive); that for `c1ccc2c(c1)Nc1ccncc1S2` was “inactive”; that for `c1cc2[nH]snc2c2nc(C3CC3)nc12` was “inactive”.
As for `CN(C)c1ccc(C(=S)Nc2ccccc2)cc1`, the figure is > 35.9 µM (inactive); as for `CCc1ccc(/C=C2\SC(=S)N(CCCC(=O)NCCCN3CCOCC3)C2=O)cc1`, “inactive”; as for `O=C(CCl)N(c1ccccc1)C1CCCCC1`, “inactive”.
With `O=C(CCl)N1N=C(c2ccco2)CC1c1ccco1` (configuration not stated), the IC50 is > 35.9 µM (inactive).
With `COc1ccc(OC)c(N/C=C/C(=O)c2ccccc2)c1`, the IC50 result was “inactive”.
The value for `Oc1ccc(C=NNc2ccccn2)c(O)c1` was > 35.9 µM (inactive); that for `CC(=O)c1cccc(-c2csc3ncnc(Sc4nnnn4C)c23)c1` was > 35.9 µM (inactive).
As for `CCOC(=O)CC(=O)CSc1nccc(-c2cccnc2)n1`, the figure is > 35.9 µM (inactive).
The value for `O=S(=O)(c1ccc(F)cc1)c1snnc1-c1ccccc1` was > 35.9 µM (inactive); that for `CC(C)N(c1ccccc1)c1ccc(NC(=O)CCl)cc1` was > 35.8 µM (inactive); that for `COc1ccc(-c2cn[nH]c2-c2ccc(OC)cc2O)cc1` was 8.83 µM.
Take `O=C(NCCc1ccccc1)c1ccc2c(c1)OCCO2`: the IC50 result is “inactive”.
The value for `O=C(NC(NC(=S)N1CCOCC1)C(Cl)(Cl)Cl)c1ccc(Cl)cc1` (configuration not stated) was “inactive”.
As for `COc1ccccc1N(C(=O)CCl)c1cn(C(C)=O)c2ccccc12`, the figure is > 35.9 µM (inactive); as for `Cc1cc(-c2nnc(SCC(=O)Nc3ccccc3C(F)(F)F)o2)c(C)n1-c1ccccc1`, > 35.9 µM (inactive); as for `CCCNC(=O)c1nnsc1S(=O)(=O)c1ccc(Cl)cc1`, “inactive”.
The value for `CN(Cc1cnc2nc(N)nc(N)c2n1)c1ccc(C(=O)NC(CCC(=O)O)C(=O)O)c2ccccc12` (configuration not stated) was > 35.9 µM (inactive).
`Cc1ccc(C(=O)O/N=C(\N)c2ccccn2)c(Cl)c1`: the IC50 is > 35.9 µM (inactive).
In the case of `O=C(Nc1cccnc1)c1ccc(C(=O)Nc2cccnc2)cc1`, the IC50 is > 35.9 µM (inactive).
For `CCOc1ccc(/C=C2\SC(=S)N(CCCC(=O)NCCCN3CCOCC3)C2=O)cc1`, the IC50 is > 35.9 µM (inactive).
The value for `Cc1cccc(Oc2sc(C(=O)c3ccccc3)c(N)c2C#N)c1` was “inactive”; that for `O=C(CCl)NC(Cc1ccccc1)c1ccccc1` (configuration not stated) was “inactive”.
As for `O=C(CCl)N(c1ccccc1)C1CCS(=O)(=O)C1` (configuration not stated), the entry is “inactive”; as for `CCOC(=O)C(=CNc1ccc(NC2=NCC(C)S2)cc1)C(=O)OCC` (configuration not stated), > 35.8 µM (inactive); as for `C(=NNc1ccc2ccccc2n1)c1ccccn1`, > 35.9 µM (inactive).
As for `CNc1ncnc(Sc2nc(N)nc3nc[nH]c23)c1[N+](=O)[O-]`, the IC50 was > 35.9 µM (inactive).
The value for `Cc1ccc(/C=C2/SC(=S)N(CCCC(=O)Nc3ccc(O)cc3)C2=O)cc1` was > 35.9 µM (inactive); that for `S=C(Nc1ccccc1)Nc1ccc(OCc2ccc(Cl)cc2Cl)cc1` was “inactive”; that for `NC(=O)c1sc2nc3c(c(-c4ccco4)c2c1N)CCC3` was 3.29 µM.
Regarding `O=C(Nc1ccc(OCC(=O)N2CCOCC2)cc1)c1cncc(Br)c1`, the IC50 result was “inactive”.
With `COc1ccc(/C=C2\CN(Cc3ccccc3)C/C(=C\c3ccc(OC)c(O)c3)C2=O)cc1O`, the IC50 was > 35.9 µM (inactive).
Turning to `C(=N\Nc1nc2ccccc2[nH]1)/c1cccc2cccnc12`, the IC50 is > 35.9 µM (inactive).
Regarding `COc1cccc(NC(=O)CSc2nnc(-c3cc(C)n(-c4ccccc4)c3C)o2)c1`, the IC50 is > 35.9 µM (inactive).
